Measured values from patent publication US20220380801A1, “TRIPARTITE SYSTEMS FOR PROTEIN DIMERIZATION AND METHODS OF USE” (priority 2019, published 2022).

System: mutant HCV PR: simeprevir: PRSIM_23 complex
Assay: HTRF disruption of pre-formed mutant complexes
Type: binding, Hepatitis C virus subtype 1a
Conditions: mutation at position 136
Experimental: Methods of determining whether the competing small molecule is capable of binding to the target protein in the T-SM complex and displacing the small molecule from the T-SM complex include assays where a pre-formed tripartiate complex is generated and the ability of the binding member to bind the T-SM complex is measured (e.g. by a homogeneous time-resolved florescence (HTFR) binding assay) as increasing concentrations of the competing small molecule are added. A competing small molecule may be capable to displaying the small molecule from the T-SM complex if it is capable of inhibiting binding of inhibiting the binding member from binding the T-SM complex by at least 50%, by at least 75%, by at least 80%, by at least 85%, by at least 90%, or by at least 95% when measured using the HTFR binding assay. In some embodiments, the competing small molecule is asunaprevir, paritaprevir, vaniprevir, grazoprevir, danoprevir or glecaprevir. The binding member, target protein and small molecule using in the method may be as further defined herein in relation to other aspects of the disclosure.
To further characterise the mutations made to the HCV NS3/4A PR, we investigated whether the small molecules were able to disrupt pre-formed mutant HCV PR: simeprevir: PRSIM_23 complexes. […] The degree of inhibition is dependent on the specific mutation made.

SMILES	inhibition of pre-formed mutant complex
CC(C)(C)[C@@H]1NC(=O)O[C@@H]2CCC[C@H]2OC/C=C/C(F)(F)c2nc3ccccc3nc2O[C@@H]2C[C@@H](C(=O)N[C@]3(C(=O)NS(=O)(=O)C4(C)CC4)C[C@H]3C(F)F)N(C2)C1=O [glecaprevir]	more pronounced inhibition
CC[C@@H]1C[C@]1(NC(=O)[C@@H]1C[C@@H]2CN1C(=O)[C@H](C(C)(C)C)NC(=O)OCC(C)(C)CCCCc1cccc3c1CN(C3)C(=O)O2)C(=O)NS(=O)(=O)C1CC1 [vaniprevir]	more pronounced inhibition
C=C[C@@H]1C[C@]1(NC(=O)[C@@H]1C[C@@H](Oc2ncc(OC)c3ccc(Cl)cc23)CN1C(=O)[C@@H](NC(=O)OC(C)(C)C)C(C)(C)C)C(=O)NS(=O)(=O)C1CC1 [asunaprevir]	more pronounced inhibition
CC(C)(C)OC(=O)N[C@H]1CCCCC/C=C\[C@@H]2C[C@@]2(C(=O)NS(=O)(=O)C2CC2)NC(=O)[C@@H]2C[C@@H](OC(=O)N3Cc4cccc(F)c4C3)CN2C1=O [danoprevir]	more pronounced inhibition
C=C[C@@H]1C[C@]1(NC(=O)[C@@H]1C[C@@H]2CN1C(=O)[C@H](C(C)(C)C)NC(=O)O[C@@H]1C[C@H]1CCCCCc1nc3ccc(OC)cc3nc1O2)C(=O)NS(=O)(=O)C1CC1.O [grazoprevir]	more pronounced inhibition
Cc1cnc(C(=O)N[C@H]2CCCCC/C=C\[C@@H]3C[C@@]3(C(=O)NS(=O)(=O)C3CC3)NC(=O)[C@@H]3C[C@@H](Oc4nc5ccccc5c5ccccc45)CN3C2=O)cn1 [paritaprevir]	more pronounced inhibition
